One experiment has as its system anergic human T-cells. As to the kind of experiment: Anergic T-cell activation assessed by IFNγ secretion (ionomycin-induced anergy). The class given is cell-based. The conditions noted are these: anergic T-cells re-challenged with anti-CD3 and anti-CD28 for 24 hours, read-out: IFNγ Fold change from baseline. An excerpt:
Peripheral blood mononuclear cells (PBMC) were obtained either: 1) by using Ficoll-Paque™ (GE Healthcare) for separation of peripheral blood hematopoietic cells from buffy coats of healthy human donors; or 2) directly from LeukoPak donations. Total human primary T-cells were isolated from the PBMCs utilizing negative selection with commercial kits following the manufacturer's protocol (Miltenyi Catalog #130-096-535 (i.e., cocktail of antibodies against surface markers CD14, CD15, CD16, CD19, CD34, CD36, CD56, CD123 and CD235a were incubated with the PBMCs before passing the samples by magnetic beads for removal of cells expressing those surface markers) or StemCells Catalog #17951) to yield >95% CD3+ cells assessed by flow cytometry. The cells were activated with immobilized anti-CD3 antibody (OKT3) and soluble anti-CD28 antibody (28.2) for two days at which time they are washed and allowed to rest for three days in the absence of stimulation. They were then treated with ionomycin (Sigma) for 18-24 hours to induce anergy. Following two washes to remove the ionomycin from the samples, Cbl-b inhibitor compounds were added to the cells at the indicated concentrations (e.g. 10, 1.11 and 0.37 μM) and incubated for 1 hour. The cells were then re-challenged with anti-CD3 antibody and anti-CD28 antibody for 24 hours at which point cell free supernatants were collected and assessed for cytokines (e.g., IFNγ) by ELISA (R&D Systems or Peprotech) or Luminex multiplex kits (Procarta Life Technologies) following manufacturer's protocols.
Cbl-b inhibitors were tested to determine their ability to induce or enhance secretion of cytokines from anergic T-cells (e.g. IFNγ), which is indicative of decreased T-cell tolerance.
Readouts were reported as fold change over baseline. Baseline for this study was the measurement obtained from anergic human T-cells stimulated with immobilized anti-CD3 and soluble anti-CD28, wherein the T-cells were not incubated with a Cbl-b inhibitor (Table 7). For IFNγ changes greater than 2.5-fold over baseline were considered a positive response (Table 7). Compounds were ranked into bins according to their readout as follows for IFNγ: A indicates ≤2.50, B indicates 2.51-4.00 and C indicates >4.01.

The next experiment concerns the target Cbl-b (residues 36-427) (Homo sapiens, UniProt Q13191). As to the kind of experiment: Cbl-b binding assay (SPR, Biacore T200). The conditions noted are these: 20° C., 1:1 binding model. An outline of the steps: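 NeutrAvidin capture chip, 20° C; 50 s injections at 50 μl/min, 90-180 s dissociation; 0.3 M NaCl regeneration. Asterisked column: 50 mM NaCl buffer and 30 nM Src kinase in place of 100 mM NaCl and 60 nM Src kinase. 1:1 fit.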

For the next experiment, the target named is Cbl-b (Homo sapiens, UniProt Q13191). As to the kind of experiment: Cbl-b activity assay (Cbl-b inhibition assay), TR-FRET of Cbl-b interaction with UbcH5B-Ub. The class given is biochemical. The conditions noted are these: assay buffer with 100 mM NaCl, 60 nM Src kinase; read-out: Cbl-b activity IC50. An outline of the steps:
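Compound-treated Cbl-b was incubated 1.5 h with Src kinase (60 nM final; 30 nM for asterisked values, which also used 50 mM instead of 100 mM NaCl), 1 mM ATP and 5 mM MgCl2. Binding to fluorescent Ub-loaded UbcH5B (C85K mutant) was then read by TR-FRET after 1 h more.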

Experiment [1] has as its system human T-cells with allogenic immature dendritic cells. As to the kind of experiment: Allogenic mixed lymphocyte reaction (MLR), T-cell proliferation. The class given is cell-based. The conditions noted are these: 120 h, 5 days, baseline T-cells without Cbl-b inhibitor, read-out: Proliferation, fold change over baseline. The procedure:
Cbl-b inhibitor effects on primary human T-cells were also evaluated in the context of an allogenic mixed lymphocyte reaction (MLR). Allogenic immature dendritic cells were generated under the following conditions. Peripheral blood mononuclear cells (PBMC) were obtained either: 1) by using Ficoll-Paque™ (GE Healthcare) for separation of peripheral blood hematopoietic cells from huffy coats of healthy human donors; or 2) directly from LeukoPak donations. […] Monocytes were cultured with 30 ng/mL of recombinant human GM-CSF and 20 ng/mL of recombinant human IL-4 for seven days to generate immature dendritic cells. Monocytes and T-cells were either isolated fresh from peripheral blood or thawed from frozen stocks. Human T-cells were isolated, labeled with CFSE and incubated with inhibitors as described above. […] Proliferation of the T-cells was evaluated by flow cytometry.
Readouts for the allogenic mixed lymphocyte reaction were reported as fold change over baseline. Baseline for this study was the measurement obtained from total human T-cells stimulated with allogenic immature dendritic cells, wherein the T-cells were not incubated with a Cbl-b inhibitor (Table 5). Increases in proliferation greater than 2-fold over baseline were considered a positive response (Table 5).

A further experiment deals with T-cell. As to the kind of experiment: IL-2 secretion from T-cells stimulated with anti-CD3 antibody alone (Biological Example 2). It counts as cell-based. To be noted: primary human total T-cells, read-out: IL-2 secretion, Anti-CD3 stimulation, fold change over baseline; for fold induction at 1 µM: 1 μM compound; for fold induction at 8 µM: 8 μM compound.

Cbl-b, sequence (Q13191 36-427): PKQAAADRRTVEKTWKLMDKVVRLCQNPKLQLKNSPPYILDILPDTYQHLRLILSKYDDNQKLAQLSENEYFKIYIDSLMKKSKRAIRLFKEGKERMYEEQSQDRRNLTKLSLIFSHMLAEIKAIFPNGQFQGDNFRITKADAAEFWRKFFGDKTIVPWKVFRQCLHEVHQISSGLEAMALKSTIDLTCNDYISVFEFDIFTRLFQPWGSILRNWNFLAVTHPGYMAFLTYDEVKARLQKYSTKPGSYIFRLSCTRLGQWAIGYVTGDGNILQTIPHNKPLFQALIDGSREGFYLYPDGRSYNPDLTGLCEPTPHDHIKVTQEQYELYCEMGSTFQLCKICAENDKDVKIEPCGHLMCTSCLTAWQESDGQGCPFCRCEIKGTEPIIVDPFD
Cbl-b (residues 36-427), sequence (Q13191 36-427): as above

As for `C[C@H](Cc1nncn1C)c1cccc(NC(=O)c2cccc(C(F)(F)F)n2)c1` [Compound 183a, (R)-N-(3-(1-(4-methyl-4H-1,2,4-triazol-3-yl)propan-2-yl)phenyl)-6-(trifluoromethyl)picolinamide], in the experiment on anergic human T-cells, the fold induction at 0.37 µM is not above 2.5, the fold induction at 1.11 µM is 2.51 to 4 and the fold induction at 10 µM was not above 2.5. The Kd at Cbl-b (residues 36-427) fell in the range of 100 to 300 nM. Moreover, the IC50 at Cbl-b was less than 100 nM. Also, in experiment [1], the fold induction at 3 µM was less than 2 and the fold induction at 10 µM is less than 2.
On to `Cc1cc(C(=O)Nc2cccc([C@H](C)Cc3nncn3C)c2)nc(C2CC2)n1` [Compound 195, (R)-2-cyclopropyl-6-methyl-N-(3-(1-(4-methyl-4H-1,2,4-triazol-3-yl)propan-2-yl)phenyl)pyrimidine-4-carboxamide], for which, in the experiment with anergic human T-cells, the fold induction at 0.37 µM was not above 2.5, the fold induction at 1.11 µM was not above 2.5 and the fold induction at 10 µM is not above 2.5. Moreover, the Kd at Cbl-b (residues 36-427) is less than 100 nM. Further, the IC50 on Cbl-b is less than 100 nM. Besides, in experiment [1], the fold induction at 3 µM was less than 2 and the fold induction at 10 µM was in the range of 2.01 to 3.
Take `C[C@H](Cc1nncn1C)c1cccc(N2Cc3c(cccc3C(F)(F)F)C2=O)c1` [Compound 255a, (R)-2-(3-(1-(4-methyl-4H-1,2,4-triazol-3-yl)propan-2-yl)phenyl)-4-(trifluoromethyl)isoindolin-1-one]: in the experiment with anergic human T-cells, the fold induction at 0.37 µM is not above 2.5, the fold induction at 1.11 µM lay in the range of 2.51 to 4 and the fold induction at 10 µM was not above 2.5. Moreover, the Kd at Cbl-b (residues 36-427) lay within 100 to 300 nM. The concentration for half-maximal inhibition (IC50) at Cbl-b was less than 100 nM. Further, in experiment [1], the fold induction at 3 µM was less than 2 and the fold induction at 10 µM was less than 2.
`C[C@H](Cc1nncn1C)c1cccc(NC(=O)c2n[nH]c3c2CCC3)c1` [Compound 313, (R)-N-(3-(1-(4-Methyl-4H-1,2,4-triazol-3-yl)propan-2-yl)phenyl)-1,4,5,6-tetrahydrocyclopenta[c]pyrazole-3-carboxamide]: in the experiment on anergic human T-cells, the fold induction at 0.37 µM was not above 2.5, the fold induction at 1.11 µM was not above 2.5 and the fold induction at 10 µM was not above 2.5. For the same compound, the Kd on Cbl-b (residues 36-427) lay within 301 to 1000 nM. Moreover, at Cbl-b, the IC50 lay within 100 to 300 nM. Further, in experiment [1], the fold induction at 3 µM is less than 2 and the fold induction at 10 µM was less than 2.
For `Cc1cc(C(=O)Nc2cccc([C@@H](C)Cc3nncn3C)c2)nc(C2CC2)n1` [Compound 325, (S)-2-Cyclopropyl-6-methyl-N-(3-(1-(4-methyl-4H-1,2,4-triazol-3-yl)propan-2-yl)phenyl)pyrimidine-4-carboxamide], in the experiment with anergic human T-cells, the fold induction at 0.37 µM is not above 2.5, the fold induction at 1.11 µM is not above 2.5 and the fold induction at 10 µM was not above 2.5. On Cbl-b (residues 36-427), this compound gave a Kd of 301 to 1000 nM. The IC50 on Cbl-b fell in the range of 100 to 300 nM. Besides, in experiment [1], the fold induction at 3 µM is less than 2 and the fold induction at 10 µM was less than 2.
At Cbl-b (residues 36-427), `Cn1cnnc1C(F)(F)[C@](C)(F)c1cccc(N2Cc3c(cc(CN4CC[C@H](F)C4)cc3C(F)(F)F)C2=O)c1` [Compound 447, 6-(((S)-3-fluoropyrrolidin-1-yl)methyl)-2-(3-((R)-1,1,2-trifluoro-1-(4-methyl-4H-1,2,4-triazol-3-yl)propan-2-yl)phenyl)-4-(trifluoromethyl)isoindolin-1-one] yielded a Kd of less than 100 nM. Moreover, the IC50 at Cbl-b is less than 100 nM. Besides, in the experiment on T-cell, the fold induction at 1 µM was more than 0.201 and the fold induction at 8 µM was more than 0.201.
On to `Cn1cnnc1C(F)(F)[C@](C)(F)c1cccc(N2Cc3c(cc(CN4CCC(F)(F)C4)cc3C(F)(F)F)C2=O)c1` [Compound 448, (R)-6-((3,3-difluoropyrrolidin-1-yl)methyl)-2-(3-(1,1,2-trifluoro-1-(4-methyl-4H-1,2,4-triazol-3-yl)propan-2-yl)phenyl)-4-(trifluoromethyl)isoindolin-1-one], for which, on Cbl-b (residues 36-427), the Kd was less than 100 nM. In addition, the IC50 on Cbl-b was less than 100 nM. Besides, in the experiment with T-cell, the fold induction at 1 µM fell in the range of 0.101 to 0.15 and the fold induction at 8 µM is more than 0.201.
`Cn1cnnc1CC1(c2cccc(N3Cc4c(cc(CN5CC6(CC6)C5)cc4C(F)(F)F)C3=O)c2)COC1` [Compound 487, 6-{5-azaspiro[2.3]hexan-5-ylmethyl}-2-(3-{3-[(4-methyl-1,2,4-triazol-3-yl)methyl]oxetan-3-yl}phenyl)-4-(trifluoromethyl)-3H-isoindol-1-one]: the IC50 at Cbl-b was less than 100 nM. Moreover, the fold induction at 1 µM in the experiment with T-cell was more than 0.201.
`Cn1cnnc1CC1(c2cccc(NC(=O)c3cc(CN4CC[C@H](F)C4)cc(C4CC4)n3)c2)COC1` [Compound 496, 6-cyclopropyl-4-{[(3S)-3-fluoropyrrolidin-1-yl]methyl}-N-(3-{3-[(4-methyl-1,2,4-triazol-3-yl)methyl]oxetan-3-yl}phenyl)pyridine-2-carboxamide]: the Kd on Cbl-b (residues 36-427) is less than 100 nM. The IC50 on Cbl-b is less than 100 nM. Also, the fold induction at 1 µM in the experiment on T-cell is more than 0.201.
In the case of `C[C@@H](c1cc2c(c(C(F)(F)F)c1)CN(c1cccc(C3(Cc4nncn4C)COC3)c1)C2=O)N1C[C@H]2C[C@H]2C1` [Compound 541a, 6-((1S)-1-(3-azabicyclo[3.1.0]hexan-3-yl)ethyl)-2-(3-(3-((4-methyl-4H-1,2,4-triazol-3-yl)methyl)oxetan-3-yl)phenyl)-4-(trifluoromethyl)isoindolin-1-one], the IC50 on Cbl-b was less than 100 nM. Further, the fold induction at 1 µM in the experiment on T-cell is more than 0.201.
On Cbl-b (residues 36-427), `C[C@@H](c1cc2c(c(C(F)(F)F)c1)CN(c1cccc(C3(Cc4nncn4C)COC3)c1)C2=O)N1CCC(C)(F)CC1` [Example 553a, (S)-6-(1-(4-fluoro-4-methylpiperidin-1-yl)ethyl)-2-(3-(3-((4-methyl-4H-1,2,4-triazol-3-yl)methyl)oxetan-3-yl)phenyl)-4-(trifluoromethyl)isoindolin-1-one] showed an equilibrium dissociation constant (Kd) of less than 100 nM. In addition, at Cbl-b, the half-maximal inhibitory concentration (IC50) was less than 100 nM. In the experiment with T-cell, the fold induction at 1 µM was more than 0.201.
On to `C[C@H](c1cc2c(c(C(F)(F)F)c1)CN(c1cccc(C3(Cc4nncn4C)COC3)c1)C2=O)N1CCC(C)(F)CC1` [Example 553b, (R)-6-(1-(4-fluoro-4-methylpiperidin-1-yl)ethyl)-2-(3-(3-((4-methyl-4H-1,2,4-triazol-3-yl)methyl)oxetan-3-yl)phenyl)-4-(trifluoromethyl)isoindolin-1-one], for which, at Cbl-b, the IC50 is less than 100 nM. Moreover, in the experiment with T-cell, the fold induction at 1 µM was more than 0.201.

The values above are taken from patent US20220324835A1 (Nurix Therapeutics, Inc., priority 2018, published 2022).
